# Data as given in patent US8147818B2, “Hepatitis C virus inhibitors” (Bristol-Myers Squibb Company, priority 2008, dated 2012).
# System: HCV 1b-377-neo replicon cells
# Experiment: HCV Replicon assay, HCV 1b-377-neo replicon cells
# Format: cell-based, HCV 1b genotype
# Conditions: Hepatitis C virus, read-out: EC50 against HCV 1b (Activity or Range)
# Method: An HCV Replicon assay was utilized in the present disclosure, and was prepared, conducted and validated as described in commonly owned PCT/US2006/022197 and in O'Boyle et. al. Antimicrob Agents Chemother. 2005 April; 49(4):1346-53.
# HCV 1b-377-neo replicon cells were used to test the currently described compound series as well as cells resistant to compound A containing a Y2065H mutation in NS5A (described in application PCT/US2006/022197). The compounds tested were determined to have more than 10-fold less inhibitory activity on cells containing the mutation than wild-type cells indicating a related mechanism of action between the two compound series. Thus, the compounds of the present disclosure can be effective to inhibit the function of the HCV NS5A protein and are understood to be as effective in combinations as previously described in application PCT/US2006/022197 and commonly owned WO/O4014852. Further, the compounds of the present disclosure can be effective against the HCV 1b genotype. It should also be understood that the compounds of the present disclosure can inhibit multiple genotypes of HCV. […] In one embodiment compounds of the present disclosure are active against the 1a, 1b, 2a, 2b, 3a, 4a, and 5a genotypes.
row,SMILES,EC50 [nM]
1,CCN(CC)[C@@H](C(=O)N1CC(F)(F)C[C@H]1c1ncc(-c2ccc(-c3ccc4c(ccc5[nH]c([C@@H]6CCCN6C(=O)[C@@H](c6ccccc6)N(CC)CC)nc54)c3)cc2)[nH]1)c1ccccc1 [Example 22w.a],0.12
2,COC(=O)N[C@H](C(=O)N1CCC[C@H]1c1nc2c([nH]1)CCCc1cc(-c3ccc(-c4cnc([C@@H]5CCCN5C(C)=O)[nH]4)cc3)ccc1-2)C(C)C [Example 24],0.32

# Same assay, conditions: Hepatitis C virus, read-out: EC50 against HCV 1b (Activity or Range), range class
row,SMILES,EC50 [nM]
1,CCN(CC)[C@@H](C(=O)N1[C@@H]2C[C@@H]2C[C@H]1c1ncc(-c2ccc(-c3ccc4c(ccc5[nH]c([C@@H]6C[C@H]7C[C@H]7N6C(=O)[C@@H](c6ccccc6)N(CC)CC)nc54)c3)cc2F)[nH]1)c1ccccc1 [Example 22v.1a],0.001 to 0.1
2,COC(=O)N[C@@H](C(=O)N1[C@@H]2C[C@@H]2C[C@H]1c1ncc(-c2ccc(-c3ccc4c(ccc5[nH]c([C@@H]6C[C@H]7C[C@H]7N6C(=O)[C@H](NC(=O)OC)c6ccccc6)nc54)c3)cc2F)[nH]1)c1ccccc1 [Example 22v.1b],0.001 to 0.1
3,CCN(CC)[C@@H](C(=O)N1CCC[C@H]1c1ncc(-c2ccc(-c3ccc4c(ccc5[nH]c([C@@H]6CCCN6C(=O)[C@@H](c6ccccc6)N(CC)CC)nc54)c3)cc2F)[nH]1)c1ccccc1 [Example 22v.a],0.101 to 0.999
4,COC(=O)N[C@H](C(=O)N1CCC[C@H]1c1ncc(-c2ccc(-c3ccc4c(ccc5[nH]c([C@@H]6CCCN6C(=O)[C@@H](NC(=O)OC)C(C)C)nc54)c3)cc2F)[nH]1)C(C)C [Example 22v],0.001 to 0.1
5,COC(=O)N[C@H](C(=O)N1CCC[C@H]1c1ncc(-c2ccc(-c3ccc4c(ccc5[nH]c([C@@H]6CC(F)(F)CN6C(=O)[C@@H](NC(=O)OC)C(C)C)nc54)c3)cc2)[nH]1)C(C)C [Example 22w.1],0.001 to 0.1
6,CCN(CC)[C@@H](C(=O)N1CCC[C@H]1c1ncc(-c2ccc(-c3ccc4c(ccc5[nH]c([C@@H]6CC(F)(F)CN6C(=O)[C@@H](c6ccccc6)N(CC)CC)nc54)c3)cc2)[nH]1)c1ccccc1 [Example 22w.1a],0.001 to 0.1
7,COC(=O)N[C@H](C(=O)N1CC(F)(F)C[C@H]1c1ncc(-c2ccc(-c3ccc4c(ccc5[nH]c([C@@H]6CC(F)(F)CN6C(=O)[C@@H](NC(=O)OC)C(C)C)nc54)c3)cc2)[nH]1)C(C)C [Example 22w.2],0.001 to 0.1
8,CCN(CC)[C@@H](C(=O)N1CC(F)(F)C[C@H]1c1ncc(-c2ccc(-c3ccc4c(ccc5[nH]c([C@@H]6CC(F)(F)CN6C(=O)[C@@H](c6ccccc6)N(CC)CC)nc54)c3)cc2)[nH]1)c1ccccc1 [Example 22w.2a],0.001 to 0.1
9,COC(=O)N[C@H](C(=O)N1CC(F)(F)C[C@H]1c1ncc(-c2ccc(-c3ccc4c(ccc5[nH]c([C@@H]6CCCN6C(=O)[C@@H](NC(=O)OC)C(C)C)nc54)c3)cc2)[nH]1)C(C)C [Example 22w],0.001 to 0.1
10,COC(=O)N[C@H](C(=O)N1CCC[C@H]1c1ncc(-c2ccc(-c3ccc4c(c3)CCCCc3[nH]c([C@@H]5CCCN5C(=O)[C@@H](NC(=O)OC)C(C)C)nc3-4)cc2)[nH]1)C(C)C [Example 22x.1],0.001 to 0.1
11,CCN(CC)[C@@H](C(=O)N1CCC[C@H]1c1ncc(-c2ccc(-c3ccc4c(c3)CCCCc3[nH]c([C@@H]5CCCN5C(=O)[C@@H](c5ccccc5)N(CC)CC)nc3-4)cc2)[nH]1)c1ccccc1 [Example 22x.1a],0.001 to 0.1
12,CCN(CC)[C@@H](C(=O)N1CCC[C@H]1c1nc2c(ccc3cc(-c4ccc5c(ccc6nc([C@@H]7CCCN7C(=O)[C@@H](NC(=O)OC)C(C)C)[nH]c65)c4)ccc32)[nH]1)c1ccccc1 [Example 24.1],0.001 to 0.1
13,COC(=O)N[C@H](C(=O)N1CCC[C@H]1c1nc2ccc3cc(-c4ccc5c(ccc6[nH]c([C@@H]7CCCN7C(=O)[C@H](NC(=O)OC)c7ccccc7)nc65)c4)ccc3c2[nH]1)C(C)C [Example 24.1a],0.001 to 0.1
14,COC(=O)N[C@H](C(=O)N1CCC[C@H]1c1nc2ccc3cc(-c4ccc5c(ccc6[nH]c([C@@H]7CCCN7C(=O)[C@@H](NC(=O)OC)C7CCOCC7)nc65)c4)ccc3c2[nH]1)C(C)C [Example 24.1b],0.001 to 0.1
15,COC(=O)N[C@H](C(=O)N1CCC[C@H]1c1nc2ccc3cc(-c4ccc5c(ccc6[nH]c([C@@H]7CCCN7C(=O)[C@H](O)c7ccccc7)nc65)c4)ccc3c2[nH]1)C(C)C [Example 24.1d],0.001 to 0.1
16,CCN(CC)[C@@H](C(=O)N1[C@@H]2C[C@@H]2C[C@H]1c1nc2c(ccc3cc(-c4ccc5c(ccc6nc([C@@H]7C[C@H]8C[C@H]8N7C(=O)[C@@H](NC(=O)OC)C(C)C)[nH]c65)c4)ccc32)[nH]1)c1ccccc1 [Example 24.2],0.001 to 0.1
17,COC(=O)N[C@H](C(=O)N1[C@@H]2C[C@@H]2C[C@H]1c1nc2ccc3cc(-c4ccc5c(ccc6[nH]c([C@@H]7C[C@H]8C[C@H]8N7C(=O)[C@H](NC(=O)OC)c7ccccc7)nc65)c4)ccc3c2[nH]1)C(C)C [Example 24.2a],0.001 to 0.1
18,COC(=O)N[C@H](C(=O)N1[C@@H]2C[C@@H]2C[C@H]1c1nc2ccc3cc(-c4ccc5c(ccc6[nH]c([C@@H]7C[C@H]8C[C@H]8N7C(=O)[C@@H](NC(=O)OC)C7CCOCC7)nc65)c4)ccc3c2[nH]1)C(C)C [Example 24.2b],0.001 to 0.1
19,COC(=O)N[C@H](C(=O)N1[C@@H]2C[C@@H]2C[C@H]1c1nc2ccc3cc(-c4ccc5c(ccc6[nH]c([C@@H]7C[C@H]8C[C@H]8N7C(=O)C(c7ccccc7)N7C8CCC7CC8)nc65)c4)ccc3c2[nH]1)C(C)C (some centres unmarked) [Example 24.2d],0.001 to 0.1
20,COC(=O)N[C@H](C(=O)N1CCC[C@H]1c1nc2c([nH]1)CCCc1cc(-c3ccc(-c4cnc([C@@H]5CCCN5C(=O)CN(C)C)[nH]4)cc3)ccc1-2)C(C)C [Example 24.a],0.001 to 0.1
21,COC(=O)N[C@@H](C)C(=O)N1CCC[C@H]1c1ncc(-c2ccc(-c3ccc4c(c3)CCCc3[nH]c([C@@H]5CCCN5C(=O)[C@@H](NC(=O)OC)C(C)C)nc3-4)cc2)[nH]1 [Example 24.b],0.001 to 0.1
